Legend:
Assay in all cases: cells
A2058 = type: functional, cell-based; conditions: Homo sapiens
Description: SANGER: Inhibition of human A2058 cell growth in a cell viability assay.

BT-20 = type: functional, cell-based; conditions: Homo sapiens
Description: SANGER: Inhibition of human BT-20 cell growth in a cell viability assay.

SJRH30 = type: functional, cell-based; conditions: Homo sapiens
Description: SANGER: Inhibition of human SJRH30 cell growth in a cell viability assay.

CAKI-1 = type: functional, cell-based; conditions: Homo sapiens
Description: SANGER: Inhibition of human CAKI-1 cell growth in a cell viability assay.

SN12C = type: functional, cell-based; conditions: Homo sapiens
Description: SANGER: Inhibition of human SN12C cell growth in a cell viability assay.

UACC-62 = type: functional, cell-based; conditions: Homo sapiens
Description: SANGER: Inhibition of human UACC-62 cell growth in a cell viability assay.

A204 = type: functional, cell-based; conditions: Homo sapiens
Description: SANGER: Inhibition of human A204 cell growth in a cell viability assay.

MDA-MB-175-VII = type: functional, cell-based; conditions: Homo sapiens
MDA-MB-361 = type: functional, cell-based; conditions: Homo sapiens
HSC-3 = type: functional, cell-based; conditions: Homo sapiens
Description: SANGER: Inhibition of human HSC-3 cell growth in a cell viability assay.

EFO-21 = type: functional, cell-based; conditions: Homo sapiens
Description: SANGER: Inhibition of human EFO-21 cell growth in a cell viability assay.

P12-Ichikawa = type: functional, cell-based; conditions: Homo sapiens
SK-OV-3 = type: functional, cell-based; conditions: Homo sapiens
Description: SANGER: Inhibition of human SK-OV-3 cell growth in a cell viability assay.

RO82-W-1 = type: functional, cell-based; conditions: Homo sapiens
Description: SANGER: Inhibition of human RO82-W-1 cell growth in a cell viability assay.

T-24 = type: functional, cell-based; conditions: Homo sapiens
Description: SANGER: Inhibition of human T-24 cell growth in a cell viability assay.

M059J = type: functional, cell-based; conditions: Homo sapiens
Description: SANGER: Inhibition of human M059J cell growth in a cell viability assay.

TYK-nu = type: functional, cell-based; conditions: Homo sapiens
Description: SANGER: Inhibition of human TYK-nu cell growth in a cell viability assay.

RT-112 = type: functional, cell-based; conditions: Homo sapiens
Description: SANGER: Inhibition of human RT-112 cell growth in a cell viability assay.

GMS-10 = type: functional, cell-based; conditions: Homo sapiens
Description: SANGER: Inhibition of human GMS-10 cell growth in a cell viability assay.

HT-3 = type: functional, cell-based; conditions: Homo sapiens
Description: SANGER: Inhibition of human HT-3 cell growth in a cell viability assay.

NCI-H1993 = type: functional, cell-based; conditions: Homo sapiens
Description: SANGER: Inhibition of human NCI-H1993 cell growth in a cell viability assay.

Hs-578T = type: functional, cell-based; conditions: Homo sapiens
Description: SANGER: Inhibition of human Hs-578-T cell growth in a cell viability assay.

SW780 = type: functional, cell-based; conditions: Homo sapiens
Description: SANGER: Inhibition of human SW780 cell growth in a cell viability assay.

MFH-ino = type: functional, cell-based, Homo sapiens; conditions: Homo sapiens, MFH-ino
Description: SANGER: Inhibition of human MFH-ino cell growth in a cell viability assay.

HEC-1 = type: functional, cell-based; conditions: Homo sapiens
Description: SANGER: Inhibition of human HEC-1 cell growth in a cell viability assay.

BHY = type: functional, cell-based; conditions: Homo sapiens
Description: SANGER: Inhibition of human BHY cell growth in a cell viability assay.

EW-22 = type: functional, cell-based; conditions: Homo sapiens
Description: SANGER: Inhibition of human EW-22 cell growth in a cell viability assay.

HT1197 = type: functional, cell-based, HT-1197; conditions: Homo sapiens
Description: SANGER: Inhibition of human HT-1197 cell growth in a cell viability assay.

CWR22R = type: functional, cell-based; conditions: Homo sapiens, 22Rv1
Description: SANGER: Inhibition of human 22RV1 cell growth in a cell viability assay.

SW-620 = type: functional, cell-based; conditions: Homo sapiens
Description: SANGER: Inhibition of human SW620 cell growth in a cell viability assay.

Capan-2 = type: functional, cell-based; conditions: Homo sapiens
Description: SANGER: Inhibition of human Capan-2 cell growth in a cell viability assay.

SNU-423 = type: functional, cell-based; conditions: Homo sapiens
Description: SANGER: Inhibition of human SNU-423 cell growth in a cell viability assay.

MeWo = type: functional, cell-based; conditions: Homo sapiens
Description: SANGER: Inhibition of human Mewo cell growth in a cell viability assay.

MEL-HO = type: functional, cell-based; conditions: Homo sapiens
Description: SANGER: Inhibition of human MEL-HO cell growth in a cell viability assay.

AGS = type: functional, cell-based; conditions: Homo sapiens
Description: SANGER: Inhibition of human AGS cell growth in a cell viability assay.

MIA PaCa-2 = type: functional, cell-based; conditions: Homo sapiens
Description: SANGER: Inhibition of human MIA-PaCa-2 cell growth in a cell viability assay.

LN-405 = type: functional, cell-based; conditions: Homo sapiens
Description: SANGER: Inhibition of human LN-405 cell growth in a cell viability assay.

G-401 = type: functional, cell-based; conditions: Homo sapiens
Description: SANGER: Inhibition of human G-401 cell growth in a cell viability assay.

OAW-28 = type: functional, cell-based; conditions: Homo sapiens
Description: SANGER: Inhibition of human OAW-28 cell growth in a cell viability assay.

CAL-72 = type: functional, cell-based; conditions: Homo sapiens
Description: SANGER: Inhibition of human CAL-72 cell growth in a cell viability assay.

Calu-3 = type: functional, cell-based; conditions: Homo sapiens
Description: SANGER: Inhibition of human Calu-3 cell growth in a cell viability assay.

KYSE-410 = type: functional, cell-based; conditions: Homo sapiens
Description: SANGER: Inhibition of human KYSE-410 cell growth in a cell viability assay.

NCI-H1693 = type: functional, cell-based; conditions: Homo sapiens
Description: SANGER: Inhibition of human NCI-H1693 cell growth in a cell viability assay.

SW1417 = type: functional, cell-based; conditions: Homo sapiens
Description: SANGER: Inhibition of human SW1417 cell growth in a cell viability assay.

## Cc1ccc(-n2nc(C(C)(C)C)cc2NC(=O)Nc2ccc(OCCN3CCOCC3)c3ccccc23)cc1 [DORAMAPIMOD]
A2058
  IC50: > 10 µM
BT-20
  IC50: > 10000 nM
SJRH30
  IC50: > 10 µM
CAKI-1
  IC50: > 10 µM
SN12C
  IC50: > 10 µM
UACC-62
  IC50: > 10 µM
A204
  IC50: > 10000 nM
MDA-MB-175-VII
  IC50: > 10000 nM
MDA-MB-361
  IC50: > 10000 nM
HSC-3
  IC50: > 10000 nM
EFO-21
  IC50: > 10 µM
P12-Ichikawa
  IC50: > 10 µM
SK-OV-3
  IC50: > 10 µM
RO82-W-1
  IC50: > 10 µM
T-24
  IC50: 8.41 µM
M059J
  IC50: > 10 µM
TYK-nu
  IC50: > 10000 nM
RT-112
  IC50: > 10 µM
GMS-10
  IC50: > 10 µM
HT-3
  IC50: > 10000 nM
NCI-H1993
  IC50: > 10 µM
Hs-578T
  IC50: > 10000 nM
SW780
  IC50: > 10 µM
MFH-ino
  IC50: > 10 µM
HEC-1
  IC50: > 10 µM
BHY
  IC50: > 10 µM
EW-22
  IC50: > 10000 nM
HT1197
  IC50: > 10 µM
CWR22R
  IC50: > 10000 nM
SW-620
  IC50: > 10 µM
Capan-2
  IC50: > 10 µM
SNU-423
  IC50: > 10000 nM
MeWo
  IC50: > 10 µM
MEL-HO
  IC50: > 10000 nM
AGS
  IC50: > 10 µM
MIA PaCa-2
  IC50: > 10 µM
LN-405
  IC50: > 10 µM
G-401
  IC50: > 10000 nM
OAW-28
  IC50: > 10 µM
CAL-72
  IC50: > 10 µM
Calu-3
  IC50: > 10 µM
KYSE-410
  IC50: > 10 µM
NCI-H1693
  IC50: > 10 µM
SW1417
  IC50: > 10 µM

## CC1(C)CCC(c2ccc(Cl)cc2)=C(CN2CCN(c3ccc(C(=O)NS(=O)(=O)c4ccc(N[C@H](CCN5CCOCC5)CSc5ccccc5)c(S(=O)(=O)C(F)(F)F)c4)cc3)CC2)C1 [NAVITOCLAX]
A2058
  IC50: > 2 µM
BT-20
  IC50: > 2000 nM
SJRH30
  IC50: > 2 µM
CAKI-1
  IC50: > 2 µM
SN12C
  IC50: > 2 µM
UACC-62
  IC50: > 2 µM
A204
  IC50: > 2000 nM
MDA-MB-175-VII
  IC50: > 2000 nM
MDA-MB-361
  IC50: > 2000 nM
HSC-3
  IC50: 1960 nM
EFO-21
  IC50: > 2 µM
P12-Ichikawa
  IC50: 0.0778 µM
SK-OV-3
  IC50: > 2 µM
RO82-W-1
  IC50: > 2 µM
T-24
  IC50: > 2 µM
M059J
  IC50: > 2 µM
TYK-nu
  IC50: > 2000 nM
RT-112
  IC50: > 2 µM
GMS-10
  IC50: > 2 µM
HT-3
  IC50: > 2000 nM
NCI-H1993
  IC50: > 2 µM
Hs-578T
  IC50: > 2000 nM
SW780
  IC50: > 2 µM
HEC-1
  IC50: > 2 µM
BHY
  IC50: > 2 µM
EW-22
  IC50: 467 nM
HT1197
  IC50: > 2 µM
CWR22R
  IC50: > 2000 nM
SW-620
  IC50: > 2 µM
Capan-2
  IC50: > 2 µM
SNU-423
  IC50: 1780 nM
MeWo
  IC50: > 2 µM
MEL-HO
  IC50: > 2000 nM
AGS
  IC50: > 2 µM
MIA PaCa-2
  IC50: > 2 µM
LN-405
  IC50: > 2 µM
G-401
  IC50: > 2000 nM
OAW-28
  IC50: 0.784 µM
CAL-72
  IC50: > 2 µM
Calu-3
  IC50: 1.71 µM
KYSE-410
  IC50: > 2 µM
NCI-H1693
  IC50: > 2 µM
SW1417
  IC50: 0.554 µM

## CS(=O)(=O)N1CCN(Cc2cc3nc(-c4cccc5[nH]ncc45)nc(N4CCOCC4)c3s2)CC1 [PICTILISIB]
A2058
  IC50: > 4 µM
BT-20
  IC50: 1690 nM
SJRH30
  IC50: > 4 µM
CAKI-1
  IC50: > 4 µM
SN12C
  IC50: > 4 µM
UACC-62
  IC50: > 4 µM
A204
  IC50: 522 nM
MDA-MB-175-VII
  IC50: 353 nM
MDA-MB-361
  IC50: 439 nM
HSC-3
  IC50: 840 nM
EFO-21
  IC50: > 4 µM
P12-Ichikawa
  IC50: > 4 µM
SK-OV-3
  IC50: > 4 µM
RO82-W-1
  IC50: > 4 µM
T-24
  IC50: > 4 µM
M059J
  IC50: > 4 µM
TYK-nu
  IC50: 1960 nM
RT-112
  IC50: > 4 µM
GMS-10
  IC50: > 4 µM
HT-3
  IC50: 2490 nM
NCI-H1993
  IC50: > 4 µM
Hs-578T
  IC50: 1200 nM
SW780
  IC50: > 4 µM
HEC-1
  IC50: > 4 µM
BHY
  IC50: 3.26 µM
EW-22
  IC50: 2250 nM
HT1197
  IC50: > 4 µM
CWR22R
  IC50: 2460 nM
SW-620
  IC50: > 4 µM
Capan-2
  IC50: > 4 µM
SNU-423
  IC50: 2400 nM
MeWo
  IC50: 3.42 µM
MEL-HO
  IC50: 2680 nM
AGS
  IC50: 3.62 µM
MIA PaCa-2
  IC50: > 4 µM
LN-405
  IC50: > 4 µM
G-401
  IC50: 1620 nM
OAW-28
  IC50: > 4 µM
CAL-72
  IC50: > 4 µM
Calu-3
  IC50: 3.71 µM
KYSE-410
  IC50: > 4 µM
NCI-H1693
  IC50: > 4 µM
SW1417
  IC50: > 4 µM

## CN(C)CCOc1ccc(-c2nc(-c3ccncc3)c(-c3ccc4c(c3)CC/C4=N\O)[nH]2)cc1 [SB590885]
A2058
  IC50: > 5 µM
BT-20
  IC50: > 5000 nM
SJRH30
  IC50: > 5 µM
CAKI-1
  IC50: > 5 µM
SN12C
  IC50: > 5 µM
UACC-62
  IC50: > 5 µM
A204
  IC50: > 5000 nM
MDA-MB-175-VII
  IC50: > 5000 nM
MDA-MB-361
  IC50: > 5000 nM
HSC-3
  IC50: > 5000 nM
EFO-21
  IC50: > 5 µM
P12-Ichikawa
  IC50: 3.44 µM
SK-OV-3
  IC50: > 5 µM
RO82-W-1
  IC50: > 5 µM
T-24
  IC50: > 5 µM
M059J
  IC50: > 5 µM
TYK-nu
  IC50: 1800 nM
RT-112
  IC50: > 5 µM
GMS-10
  IC50: > 5 µM
HT-3
  IC50: > 5000 nM
NCI-H1993
  IC50: > 5 µM
Hs-578T
  IC50: > 5000 nM
SW780
  IC50: > 5 µM
HEC-1
  IC50: > 5 µM
BHY
  IC50: > 5 µM
EW-22
  IC50: > 5000 nM
HT1197
  IC50: > 5 µM
CWR22R
  IC50: > 5000 nM
SW-620
  IC50: > 5 µM
Capan-2
  IC50: > 5 µM
SNU-423
  IC50: > 5000 nM
MeWo
  IC50: > 5 µM
MEL-HO
  IC50: 69.3 nM
AGS
  IC50: > 5 µM
MIA PaCa-2
  IC50: > 5 µM
LN-405
  IC50: > 5 µM
G-401
  IC50: > 5000 nM
OAW-28
  IC50: > 5 µM
CAL-72
  IC50: > 5 µM
Calu-3
  IC50: > 5 µM
KYSE-410
  IC50: > 5 µM
NCI-H1693
  IC50: > 5 µM
SW1417
  IC50: > 5 µM
